This experiment concerns human breast cancer cell line MCF7. The experiment is described as follows: Efficacy of the compounds on the survival of tumor cells (cytotoxic effect, cell-titer Glo luminescence). The note with it: 48 hours incubation with compound (2.4 nM to 10,000 nM), inhibition of cell survival. In kind it is cell-based. As to the method: The effect of the compounds on the survival of the human breast cancer cell line MCF7 was measured.
The cell line was analyzed at 37° C. [98.6° F.], 95% humidity and 5% CO2 in RPMI Medium (Cambrex).
The cells are inoculated in a 96-well microtiter plate (Costar) at an initial density of 2400 cells per well and cultivated for 24 hours.
The compounds are dissolved in DMSO, diluted with cell medium and added to the wells.
The cells are incubated for another 48 hours at a concentration of the compounds between 2.4 nM and 10,000 nM at a volume of 50 μl.
50 μl of cell-titer Glo (Promega) are added to each well and the microtiter plate is incubated for 2 minutes at room temperature on a shaker and then left standing in the dark for 10 minutes.
The luminescence is measured with a microplate reader and is proportional to the number of surviving cells. The percentage of inhibition of the cell survival is calculated in comparison to (i) without cells and with compound (100% inhibition) and (ii) with cells and without compound (no inhibition).
The concentration of the half-maximum inhibition (IC50) is determined with GraphPad Prism (GraphPad Software), whereby the controls are 0% and 100%.

Consider `C/C=C/C=C/c1cc2c(Br)c3c(c(O)c2c(=O)[nH]1)[C@]1(CC3)C(=O)c2c(O)c3c(c(O)c2C1=O)C(=O)C(NC)=C(Br)C3=O` [Compound 7, (8S)-4′,9,9′-trihydroxy-5,7′-dibromo-6′-methylamino-3-[(1E,3E)-penta-1,3-dienyl]-6,7-dihydrospiro[cyclopenta[g]-isoquinoline-8,2′-cyclopenta[b]-naphthalene]-1,1′-3′,5′,8′(2H)-pentone], for which the half-inhibitory concentration (IC50) was 190 nM.

In the case of `C/C=C/C=C/c1cc2c(CN(C)C)c3c(c(O)c2c(=O)[nH]1)[C@@]1(CC3)C(=O)c2c(O)c3c(c(O)c2C1=O)C(=O)C(NC)=CC3=O` [Compound 7a, (8S)-4′,9,9′-trihydroxy-5-dimethylaminomethyl-6′-methylamine-3-[(1E,3E)-penta-1,3-dienyl]-6,7-dihydrospiro[cyclopenta[g]-isoquinoline-8,2′-cyclopenta[b]-naphthalene]-1,1′-3′,5′,8′(2H)-pentone], the IC50 came out at 660 nM.

Take `C/C=C/C=C/c1cc2c(Br)c3c(c(O)c2c(=O)[nH]1)[C@]1(CC3)C(=O)c2c(O)c3c(c(O)c2C1=O)C(=O)C(N1CCOCC1)=C(Br)C3=O` [Compound 9, (BS)-4′,9,9′-trihydroxy-5,7′-dibromo-6′-morpholino-3-[(1E,3E)-penta-1,3-dienyl]-6,7-dihydrospiro[cyclopenta[g]-isoquinoline-8,2′-cyclopenta[b]-naphthalene]-1,1′-3′,5′,8′(2H)-pentone]: the IC50 is 670 nM.

In the case of `CON=Cc1cc2c(Br)c3c(c(O)c2c(=O)[nH]1)[C@]1(CC3)C(=O)c2c(O)c3c(c(O)c2C1=O)C(=O)C(N(C)C)=C(Br)C3=O` [Compound 13, (8S)-4′,9,9′-trihydroxy-5,7′-dibromo-6′-dimethylamino-1,1′,3′,5′,8′-pentaoxo-1,1′,2,3′,5′,6,7,8′-octahydrospiro-[cyclopenta[g]-isoquinoline-8,2′-cyclopenta[b]naphthalene]-3-carbaldehyde-O-methyloxime], the half-maximal inhibitory concentration (IC50) (Homo sapiens) came out at 300 nM.

Consider “(8S)-4,9,9′-trihydroxy-5,7′-dibromo-6′-cyclopropylamino-1,1′,3′,5′,8′-pentaoxo-1,1′,2,3′,5′,6,7,8′-octahydrospiro-[cyclopenta[g]-isoquinoline-8,2′-cyclopenta[b]naphthalene]-3-carbaldehyde-O-methyloxime [Compound 12]”, for which the IC50 is 380 nM.

One may read the IC50 as the concentration at which inhibition is half-maximal.

The values are drawn from patent US20080318942A1, “Fredericamycin Derivatives” (BIOAGENCY AG, priority 2005, published 2008).
